Experiments:
MCF-7 (breast cancer) = assay: MTT cell viability assay, MCF-7; format: cell-based, human; conditions: Homo sapiens, MCF7, 72 h, MTT assay, 72 h of incubation
Description: (§1) Compounds 20–162 were evaluated in vitro for their effects on the viability of three cancer cell lines: HCT-116 (colon cancer), MCF-7 (breast cancer) and HeLa (cervical cancer), as well as the non-cancerous keratinocyte cell line (HaCaT). […] Analysis was performed using an MTT assay after 72 h of incubation.
(§2) All chemicals, if not stated otherwise, were obtained from Sigma–Aldrich (St. Louis, MO, USA). The HCT-116 cell line was purchased from ATCC (ATCC-No: CCL-247), while the MCF-7, HeLa and HaCaT cell lines were purchased from Cell Lines Services (Eppelheim, Germany). Cells were cultured in Dulbecco’s modified Eagle’s medium (DMEM) supplemented with 10% fetal bovine serum, 2 mM glutamine, 100 units/mL penicillin and 100 µg/mL streptomycin. Cultures were maintained in a humidified atmosphere with 5% carbon dioxide at 37 °C in an incubator (Heraceus, HeraCell).
(§3) Cell viability was examined using the MTT [3-(4,5-dimethylthiazol-2-yl)-2,5-diphenyltetrazolium bromide] assay. Cells were seeded in 96-well plates at a density of 3 × 10^3 cells/well and treated for 72 h with the tested compounds in the concentration range of 1–100 µM. Then, MTT (0.5 mg/mL) was added to the medium and cells were further incubated for 2 h at 37 °C. In the next stage, cells were lysed with DMSO and the absorbance of the formazan solution was measured at 550 nm with a plate reader (1420 multilabel counter, Victor, Jügesheim, Germany). The experiment was performed in triplicate. Values are expressed as the mean ± SD of at least three independent experiments. Cisplatin was used as a positive control.

HCT-116 (colon cancer) = assay: MTT cell viability assay, HCT-116; format: cell-based, human; conditions: Homo sapiens, HCT-116, 72 h, MTT assay, 72 h of incubation
Description: (§4) Analysis was performed using an MTT assay after 72 h of incubation.
as §2
as §3, with “experiments.” for “experiments. Cisplatin was used as a positive control.”

HeLa (cervical cancer) = assay: MTT cell viability assay, HeLa; format: cell-based, human; conditions: Homo sapiens, HeLa; MTT assay, 72 h of incubation
Description: as §4, §2
as §3, with “experiments.” for “experiments. Cisplatin was used as a positive control.”

[1] = tested on: HaCaT (human keratinocyte cell line); assay: MTT cell viability assay, non-cancerous HaCaT; format: cell-based; conditions: Homo sapiens, HaCaT, 72 h, 72 h of incubation, non-cancerous keratinocytes
Description: as §1, §2, §3

Cc1cc(S(=O)(=O)N=C2NCCN2)c(SCc2nc(N)nc(N3CCCc4ccccc43)n2)cc1Cl [Compound 24]
IC50 (MCF-7 (breast cancer)): 27 ± 0.3 µM
IC50 (HCT-116 (colon cancer)): 20 ± 0.4 µM
IC50 (HeLa (cervical cancer)): 22 ± 0.2 µM
IC50 [1]: 41 ± 1 µM

Cc1cc(S(=O)(=O)N=C2NCCN2Cc2ccc(Br)cc2)c(SCc2nc(N)nc(N3CCc4ccccc43)n2)cc1Cl [Compound 102]
IC50 (MCF-7 (breast cancer)): 7.5 ± 0.4 µM
IC50 (HCT-116 (colon cancer)): 8 ± 0.4 µM
IC50 (HeLa (cervical cancer)): 17 ± 1 µM
IC50 [1]: 33 ± 1 µM

Cc1cc(S(=O)(=O)N=C2NCCN2Cc2ccccc2)c(SCc2nc(N)nc(N3CCN(c4ccc(C(F)(F)F)cc4)CC3)n2)cc1Cl [Compound 60]
IC50 (MCF-7 (breast cancer)): 14 ± 0.3 µM
IC50 (HCT-116 (colon cancer)): 8 ± 0.3 µM
IC50 (HeLa (cervical cancer)): 9 ± 0.5 µM
IC50 [1]: 23 ± 1 µM

Cc1cc(S(=O)(=O)N=C2NCCN2Cc2cccc3ccccc23)c(SCc2nc(N)nc(N3CCc4ccccc43)n2)cc1Cl [Compound 74]
IC50 (MCF-7 (breast cancer)): 12 ± 0.6 µM
IC50 (HCT-116 (colon cancer)): 44 ± 2 µM
IC50 (HeLa (cervical cancer)): 13 ± 0.5 µM
IC50 [1]: 81 ± 4 µM

Cc1cc(S(=O)(=O)N=C2NCCN2Cc2ccc(F)cc2)c(SCc2nc(N)nc(Nc3ccc(F)cc3)n2)cc1Cl [Compound 86]
IC50 (MCF-7 (breast cancer)): 15 ± 0.2 µM
IC50 (HCT-116 (colon cancer)): 13 ± 0.5 µM
IC50 (HeLa (cervical cancer)): 16 ± 0.2 µM
IC50 [1]: 35 ± 2 µM

Cc1cc(S(=O)(=O)N=C2NCCN2)c(SCc2nc(N)nc(N3CCN(c4cccc(C(F)(F)F)c4)CC3)n2)cc1Cl [Compound 35]
IC50 (MCF-7 (breast cancer)): 16 ± 1 µM
IC50 (HCT-116 (colon cancer)): 14 ± 0.7 µM
IC50 (HeLa (cervical cancer)): 16 ± 1 µM
IC50 [1]: 32 ± 2 µM

Cc1cc(S(=O)(=O)N=C2NCCN2Cc2ccc(F)cc2)c(SCc2nc(N)nc(Nc3ccccc3)n2)cc1Cl [Compound 85]
IC50 (MCF-7 (breast cancer)): 23 ± 1 µM
IC50 (HCT-116 (colon cancer)): 15 ± 0.5 µM
IC50 (HeLa (cervical cancer)): 21 ± 4 µM
IC50 [1]: 38 ± 1 µM

Cc1cc(S(=O)(=O)N=C2NCCN2Cc2ccc(F)cc2)c(SCc2nc(N)nc(N(C)c3ccccc3)n2)cc1Cl [Compound 89]
IC50 (MCF-7 (breast cancer)): 18 ± 1 µM
IC50 (HCT-116 (colon cancer)): 14 ± 0.7 µM
IC50 (HeLa (cervical cancer)): 17 ± 0.6 µM
IC50 [1]: 31 ± 1 µM

Cc1cc(S(=O)(=O)N=C2NCCN2Cc2cc(C(F)(F)F)cc(C(F)(F)F)c2)c(SCc2nc(N)nc(Nc3ccccc3)n2)cc1Cl [Compound 146]
IC50 (MCF-7 (breast cancer)): 12.5 ± 0.6 µM
IC50 (HCT-116 (colon cancer)): 11.5 ± 0.5 µM
IC50 (HeLa (cervical cancer)): 15 ± 1 µM
IC50 [1]: 32 ± 1 µM

Cc1cc(S(=O)(=O)N=C2NCCN2)c(SCc2nc(N)nc(N(C)C)n2)cc1Cl [Compound 20]
IC50 (MCF-7 (breast cancer)): 220 ± 6 µM
IC50 (HCT-116 (colon cancer)): 110 ± 2 µM
IC50 (HeLa (cervical cancer)): 115 ± 7 µM

Cc1cc(S(=O)(=O)N=C2NCCN2)c(SCc2nc(N)nc(N3CCOCC3)n2)cc1Cl [Compound 21]
IC50 (MCF-7 (breast cancer)): 190 ± 2 µM
IC50 (HCT-116 (colon cancer)): 350 ± 7 µM
IC50 (HeLa (cervical cancer)): 510 ± 5 µM

Cc1cc(S(=O)(=O)N=C2NCCN2)c(SCc2nc(N)nc(N3CCN(c4ccccc4)CC3)n2)cc1Cl [Compound 31]
IC50 (HeLa (cervical cancer)): 16 ± 0.1 µM
IC50 [1]: 26 ± 1 µM

Cc1cc(S(=O)(=O)N=C2NCCN2Cc2ccccc2)c(SCc2nc(N)nc(N3CCOCC3)n2)cc1Cl [Compound 46]
IC50 (MCF-7 (breast cancer)): 23 ± 0.7 µM
IC50 (HCT-116 (colon cancer)): 21 ± 0.2 µM
IC50 (HeLa (cervical cancer)): 37 ± 0.4 µM

Cc1cc(S(=O)(=O)N=C2NCCN2Cc2cccc3ccccc23)c(SCc2nc(N)nc(N3CCN(c4ccc(Cl)cc4)CC3)n2)cc1Cl [Compound 79]
IC50 (MCF-7 (breast cancer)): 98 ± 5 µM
IC50 (HCT-116 (colon cancer)): 94 ± 2 µM
IC50 (HeLa (cervical cancer)): 88 ± 3 µM

CC1=NN(c2nc(N)nc(CSc3cc(Cl)c(C)cc3S(=O)(=O)N=C3NCCN3)n2)C(C)(C)C1 [Compound 22]
IC50 (MCF-7 (breast cancer)): 130 ± 4 µM
IC50 (HCT-116 (colon cancer)): 140 ± 3 µM
IC50 (HeLa (cervical cancer)): 110 ± 4 µM

Cc1cc(S(=O)(=O)N=C2NCCN2Cc2cccc3ccccc23)c(SCc2nc(N)nc(N3CCN(c4ccc(Cl)c(Cl)c4)CC3)n2)cc1Cl [Compound 80]
IC50 (MCF-7 (breast cancer)): 89 ± 4 µM
IC50 (HCT-116 (colon cancer)): 79 ± 2 µM
IC50 (HeLa (cervical cancer)): 98 ± 5 µM
